How the values were obtained:
Type in all cases: in vivo, Digitaria insularis
Details in all cases: DASH 0.5% v/v
D. insularis (perennial) = assay: Field trial, post-emergence application A (desiccation 30 days before soybean sowing), visual weed control rated 14 DAA-A
Experimental: (§1) A soil sample from the experimental site was analyzed and provided pH H2O 5.3; 0 cmolc H+Al^+3/dm^3; 4.2 cmolc/dm^3 Ca^+2; 1.6 cmolc/dm^3 Mg^+2; 242 mg/dm^3 K^+; 42.3 mg/dm^3 P; 18% sand; 15% silt and 67% clay.
(§2) For all herbicide applications, the applications were made using a backpack sprayer that was pressurized by CO2 with six flat fan nozzles XR110.015 at 3 bar, which caused the application volume to reach 150 L ha^−1.
(§3) Glyphosate was used as a commercially available soluble concentrate (SL)-formulation containing glyphosate as its potassium salt (480 g/l of glyphosate in its acid form), which is commercially available under the trade name Roundup Transorb R.
(§4) Imazamox was used as a commercially available water dispersible granule (WG)-formulation containing 700 g/Kg of imazamox, which is commercially available under the trade name Raptor® 70 DG.
(§5) In table 1, all details related to mode of application of herbicides, and climatic conditions during herbicide application are listed.
Crop sowing (in case of A and B; in case of A*, no crops were sown) was carried out under a no-tillage system, by distributing 16 seeds per meter of a M6410® soybean variety in all treatments with Raptor® 70 DG and also 16 seeds m^−1 of a second soybean cultivar (BMX Potência RR) in the remaining treatments. Immediately before sowing, the seeds of both cultivars were treated with a formulation of fipronil, pyraclostrobin and thiophanate methyl (Standak® Top; 200 mL per ha). Crop fertilization was performed with 300 kg ha^−1 of a commercial N-P-K formulation (02-20-18). […]
After the first application (application “A” and “A*”), two evaluations were performed on the effect of treatments on the weeds emerged at that application. For those evaluations, the infestation of the untreated control is used as reference. These assessments for the damage caused by the herbicides A and B, and the binary herbicide combination thereof were carried out at 14 days after application “A” (14 DAA-A) or 35 days after application “A*” (35-DAA-A*) using a scale from 0 to 100%, compared to the untreated control plants. Here, 0 means no damage and 100 means complete destruction of the plants.
The value E, which is to be expected if the activity of the individual compounds is just additive, was calculated using the method of S. R. Colby (1967) “Calculating synergistic and antagonistic responses of herbicide combinations”, Weeds 15, p. 22 ff. For two component mixtures the value E was calculated by the following formula […]
(§6) If the value observed in this manner is higher than the value E calculated according to Colby, a synergistic effect is present. […]

[1] = tested on: D. insularis (early stage - 2 to 6 leaves); assay: Field trial, post-emergence application A* (no soybean sowing), visual weed control rated 35 DAA-A*
Experimental: as §1, §2
Glyphosate was used as a commercially available soluble concentrate (SL)-formulation containing glyphosate as its potassium salt (480 g/l of glyphosate in its acid form), which is commercially available under the trade name Roundup Transorb R. […]
(§7) The value E, which is to be expected if the activity of the individual compounds is just additive, was calculated using the method of S. R. Colby (1967) “Calculating synergistic and antagonistic responses of herbicide combinations”, Weeds 15, p. […] For two component mixtures the value E was calculated by the following formula […]
as §6
(§8) The results are summarized in the following tables 2, 3 and 4 that show the herbicidal activity of the individual actives and of their combinations in post-emergence application assessed 14, 28 and 35 day after treatment (DAT), respectively.

D. insularis (flowering) = assay: Field trial, post-emergence application B (desiccation 0 days before soybean sowing), visual weed control rated 28 DAA-B
Experimental: as §1, §2, §3, §4, §5
Crop sowing (in case of A and B; in case of A*, no crops were sown) was carried out under a no-tillage system, by distributing 16 seeds per meter of a M6410® soybean variety in all treatments with Raptor® 70 DG and also 16 seeds m^−1 of a second soybean cultivar (BMX Potência RR) in the remaining treatments. Immediately before sowing, the seeds of both cultivars were treated with a formulation of fipronil, pyraclostrobin and thiophanate methyl (Standak® Top; 200 mL per ha). Crop fertilization was performed with 300 kg ha^−1 of a commercial N-P-K formulation (02-20-18).
For the post-emergence treatment, the test plants were first grown to a height of 3 to 20 cm, depending on the plant habit, and only then treated. Here, the herbicidal compositions were suspended or emulsified in water as distribution medium and sprayed using finely distributing nozzles.
Herbicide B was formulated as 10% by weight strength suspension concentrate and introduced to the spray liquor with the amount of solvent system used for applying the active compound. […]
as §7, §6, §8

Structure (SMILES)	Control (%) of D. insularis (perennial) (D. insularis (perennial); dose 1080 g ai/ha, scale 0-100% vs untreated)	Control (%) of D. insularis (early stage - 2 to 6 leaves) ([1]; dose 1080 g ai/ha)	Control (%) of D. insularis (flowering) (D. insularis (flowering); dose 1440 g ai/ha)	Control (%) of D. insularis (perennial) (D. insularis (perennial); dose 49 g ai/ha)	Control (%) of D. insularis (perennial) (D. insularis (perennial); dose 70 g ai/ha)	Control (%) of D. insularis (perennial) (D. insularis (perennial); dose 91 g ai/ha)	Control (%) of D. insularis (early stage - 2 to 6 leaves) ([1]; dose 105 g ai/ha)	Control (%) of D. insularis (flowering) (D. insularis (flowering); dose 70 g ai/ha)	Control (%) of D. insularis (flowering) (D. insularis (flowering); dose 105 g ai/ha)	Control (%) of D. insularis (flowering) (D. insularis (flowering); dose 140 g ai/ha)
O=C(O)CNCP(=O)(O)O [Herbicide A, N-(phosphonomethyl)glycine]	5%	5%	45%							
COCc1cnc(C2=NC(C)(C(C)C)C(=O)N2)c(C(=O)O)c1 (stereo not shown) [Herbicide B, 2-(4-isopropyl-4-methyl-5-oxo-2-imidazolin-2-yl)-5-(methoxymethyl)nicotinic acid]				13%	20%	20%	13%	40%	40%	50%

Source: patent publication US20250169499A1, “IMAZAMOX AND GLYPHOSATE FOR CONTROLLING DIGITARIA INSULARIS” (BASF AGROCHEMICAL PRODUCTS B.V., priority 2021, published 2025)
